Columns and labels:
large crabgrass (DIGSA) = test: Test J Compounds 2 and 6 alone and in combination with other herbicides, foliage spray; assay type: in vivo, Digitaria sanguinalis; design: key: 0 = no effect, 100 = complete control; settings: applied alone
Excerpt: Colby's Equation was used to calculate the expected additive herbicidal effect of the mixtures of Compound 6 with Harmony® Extra (i.e. a 2:1 mixture by weight of thifensulfuron-methyl and tribenuron-methyl). […]
Seeds of test plants consisting of barnyardgrass (ECHCG; Echinochloa crus-galli (L.) Beauv.), blackgrass (ALOMY; Alopecurus myosuroides Huds.), Surinam grass (BRADC; Urochloa decumbens (Staph) R. D. Webster, previously named Brachiaria decumbens Stapf), cocklebur (XANST, Xanthium strumarium L.), corn (ZEAMD, Zea mays L. cv. ‘Pioneer 33G26’), large crabgrass (DIGSA, Digitaria sanguinalis (L.) Scop.), giant foxtail (SETFA, Setaria faberi Herrm.), lambsquarters (CHEAL, Chenopodium album L.), morningglory (IPOCO, Ipomoea coccinea L.), pigweed (AMARE, Amaranthus retroflexus L.), velvetleaf (ABUTH, Abutilon theophrasti Medik.) wheat (TRZAS, Triticum aestivum L. cv. ‘Recital’) and wild oat (AVEFA, Avena fatua L.) were planted in Redi-Earth® planting medium (Scotts Company, 14111 Scottslawn Road, Marysville, Ohio 43041) comprising spaghnum peat moss and vermiculite. […] Also listed in Table J are the expected effects for the mixtures calculated using Colby's Equation.

blackgrass = test: Test F pre-/postemergence herbicide test; assay type: in vivo, Alopecurus myosuroides
Excerpt: (§1) Seeds of plant species selected from annual blugrass (Poa annua L.), blackgrass (Alopecurus myosuroides Huds.), catchweed bedstraw (Gallium aparine L.), common chickweed (Stellaria media (L.) Vill./Cyr.), downy bromegrass (Bromus tectorum L.), green foxtail (Setaria viridis (L.) Beauv.), Italian ryegrass (Lolium multiflorum Lam.), kochia (Kochia scoparia (L.). Schrad.), lambsquarters (Chenopodium album L.), littleseed canarygrass (Phalaris minor Retz.), pigweed (Amaranthus retroflexus L.), Russian thistle (Salsola kali L. ssp. Ruthenica (Iljin) Soo), wild buckwheat (Polygonum convolvulus L.), wild mustard (Sinapis arvensis L.), wild oat (Avena fatua L.), windgrass (Apera spica-venti (L.) Beauv.), winter barley (Hordeum vulgare L.), and wheat (Triticum aestivum L.) were planted and treated preemergence with test chemicals formulated in a non-phytotoxic solvent mixture which included a surfactant.
(§2) At the same time, plants selected from these crop and weed species were treated with postemergence applications of some of the test chemicals formulated in the same manner. Plants ranged in height from 2 to 18 cm (1- to 4-leaf stage) for postemergence treatments. Treated plants and controls were maintained in a greenhouse for 12 to 14 days, after which time all species were compared to controls and visually evaluated. Plant response ratings, summarized in Table F, are based on a scale of 0 to 100 where 0 is no effect and 100 is complete control. A dash (-) response means no test result.

annual blugrass = test: Test F pre-/postemergence herbicide test; assay type: in vivo, Poa annua
Excerpt: as §1, §2

Compound	DIGSA Obsd. (large crabgrass (DIGSA); 62 g a.i./ha)	DIGSA Obsd. (large crabgrass (DIGSA); 125 g a.i./ha)	Plant response rating (0-100), Blackgrass (blackgrass; Postemergence, 31 g ai/ha)	Plant response rating (0-100), Blackgrass (blackgrass; Postemergence, 62 g ai/ha)	Plant response rating (0-100), Blackgrass (blackgrass; Postemergence, 125 g ai/ha)	Plant response rating (0-100), Blackgrass (blackgrass; Postemergence, 250 g ai/ha)	Plant response rating (0-100), Blackgrass (blackgrass; Preemergence, 31 g ai/ha)	Plant response rating (0-100), Blackgrass (blackgrass; Preemergence, 62 g ai/ha)	Plant response rating (0-100), Blackgrass (blackgrass; Preemergence, 125 g ai/ha)	Plant response rating (0-100), Blackgrass (blackgrass; Preemergence, 250 g ai/ha)	Plant response rating (0-100), Bluegrass (annual blugrass; Postemergence, 31 g ai/ha)	Plant response rating (0-100), Bluegrass (annual blugrass; Postemergence, 62 g ai/ha)	Plant response rating (0-100), Bluegrass (annual blugrass; Postemergence, 125 g ai/ha)	Plant response rating (0-100), Bluegrass (annual blugrass; Postemergence, 250 g ai/ha)	Plant response rating (0-100), Bluegrass (annual blugrass; Preemergence, 31 g ai/ha)	Plant response rating (0-100), Bluegrass (annual blugrass; Preemergence, 62 g ai/ha)	Plant response rating (0-100), Bluegrass (annual blugrass; Preemergence, 125 g ai/ha)	Plant response rating (0-100), Bluegrass (annual blugrass; Preemergence, 250 g ai/ha)
CCn1nc(C(C)(C)C)cc1C(=O)Nc1cc(C(=O)N(C)C)ccc1F [Compound 6, N-[5-[(dimethylamino)carbonyl]-2-fluorophenyl]-3-(1,1-dimethylethyl)-1-ethyl-1H-pyrazole-5-carboxamide]	8	13																
CCn1nc(C(C)(C)C)cc1C(=O)Nc1cc(C(=O)OC(C)C)c(F)cc1F [Compound 248]			45	50	60	60	50	50	65	65	50	50	60	70	70	70	100	100

Reference: US20060069132A1, “Azolecarboxamide herbicides” (priority 2004, published 2006)
